# Source: publication PMC11432454, “An Ingenane-Type Diterpene from Euphorbia kansui Promoted Cell Apoptosis and Macrophage Polarization via the Regulation of PKC Signaling Pathways” (International Journal of Molecular Sciences, 2024)
# Read-outs that look alike come from different tables or passages of the source.
# Legend:
# HepG2 cells [1] = test: MTT assay, cell viability of HepG2 cells; type: cell-based; conditions: Homo sapiens
# Protocol: (§1) 8 × 10^4 cells/well were incubated in 96T wells for 24 h, and the cells were treated with a drug-containing medium for a specified time. Cells were added 20 μL 0.5% MTT (Sigma, USA) to each well, continued to incubate at 37 °C for 3.5 h, then the medium was discarded and 150 μL of DMSO was added to each well to dissolve the purple formazan. The cells were shaken for 15 min at room temperature and read at 490 nm. Cell viability (%) = ([…])/(ODcontrol − ODblank) × 100%. IC50 (half maximal inhibitory concentration) was calculated by SPSS 27.0 software.
# [2] = system: PKC δ, ERK, and NF-κB in LPS-stimulated RAW264.7 cells; test: Western blotting of PKC δ, ERK, NF-κB in LPS-stimulated RAW264.7 cells; type: cell-based, mouse; conditions: for level of PKC δ protein / phosphorylation of PKC δ, ERK, and NF-κB: LPS-stimulated RAW264.7, 24 h; for phosphorylation of PKC δ, ERK, and NF-κB: compared to the LPS group, BIS 150 nmol·L^−1
# Protocol: (§2) Mouse macrophage cell line RAW264.7 was incubated in a DMEM medium (Gibco, Carlsabad, CA, USA) supplemented with 10% fetal bovine serum (FBS, Gibco), 10,000 U/mL penicillin, and 10,000 μg/mL streptomycin. RAW264.7 cells were treated with 1 μg/mL Lipopolysaccharide (LPS, Sigma, Saint Louis, MO, USA, 12181202) to promote the polarization of macrophages towards M1 or 20 ng/mL interleukin 4 (IL-4, Beyotime, Shanghai, China) to promote the polarization of macrophages towards M2.
# (§3) Protein samples were prepared using a RIPA lysis buffer. The concentration of the protein was analyzed using nucleic acid and protein microanalyzer (Molecular Devices, San Jose, CA, USA). SDS-PAGE gel electrophoresis was performed to separate the proteins, which then were electro-transferred onto a PVDF membrane. The membranes were blocked with 5% non-fat milk for 2 h and incubated with primary antibodies and secondary antibodies. The protein bands were detected by the ECL and were exposed to the TANON gel imager (Shanghai, China). The results were analyzed by Image J 180 software.
# In order to investigate the effects of PKC activation on the effects of drug treatment, 150 nmoL/L bisindolylmaleimide (BIS) was used. BIS (Beyotime, Shanghai, China) is a potent inhibitor of PKC α/β/γ and PKC δ/ε. This agent was stored at −80 °C in DMSO and cells were pre-incubated with the inhibitor for 4 h prior to being treated with compound A.
# [3] = system: NO production in LPS-stimulated RAW264.7 cells; test: cells; type: cell-based; conditions: Mus musculus
# Protocol: as §2
# (§4) The isolates were evaluated for their inhibitory effect on NO production in LPS-induced RAW264.7 cells. The iNOS inhibitor (NG-monnomycin-L-arginine, L-NMMA) was selected as the positive control. NO was evaluated by absorbance-based detection on nitrite accumulated in the culture medium. The levels of cytokines (IL-1β, IFN-γ, IL-10, TNF-α, and IL-6) in the cell supernatant were determined using an ELISA kit (Novus Biologicals, Centennial, CO, USA) according to the manufacturer’s instructions. The absorbance was read at OD450nm/OD540nm in SpectraMax340PC microplate spectrophotometer (Molecular Devices, San Jose, CA, USA).
# [4] = MTT assay, cell viability of RAW264.7 cells; type: cell-based; conditions: mouse, RAW264.7 macrophage cells; half inhibitory of RAW264.7 cells, cell survival, n = 3
# Protocol: as §2, §1
# [5] = system: PKC δ and ERK in HepG2 cells; test: Western blotting of PKC δ and ERK expression and phosphorylation in HepG2 cells; type: cell-based, human
# Protocol: as §3
# MCF-7 cells = test: MTT assay, cell viability of MCF-7 cells; type: cell-based; conditions: Homo sapiens, MCF7, read-out: MCF-7 IC50
# Protocol: as §1
# HepG2 cells [6] = test: Annexin V/PI flow cytometry, apoptosis of HepG2 cells; type: cell-based, human; conditions: 12.5 μmol·L^−1 or 25 μmol·L^−1
# Protocol: (§5) Cells with the relevant surface antibodies were incubated at 4 °C for 30 min without light. The stained cells were incubated with Annexin V/PI kits from BD. The experiment was conducted according to the instructions. Data were analyzed on FlowJo V10 software.
# [7] = system: PKC δ, ERK, STAT3, STAT6, ARG-1, CD163, TGF-β, CD206 in IL-4-stimulated RAW264.7 cells; test: M2 polarization markers in IL-4-stimulated RAW264.7 cells (Western blot, immunofluorescence); type: cell-based, mouse
# Protocol: as §2
# RAW264.7 cells were fixed with 500 μL/well 4% paraformaldehyde for 20 min at room temperature, washed with 1 mL/well PBS five times, then incubated with anti-iNOS, anti-COX-2, or anti-CD206 antibodies at 4 °C overnight, separately. The cells were washed with 1 mL/well PBS five times, then treated with the secondary antibody (FITC-Goat anti-rabbit IgG antibody, 1:200-fold dilution) and DPAI (100 μL/well). […] The stained images were captured under a laser scanning confocal microscope (Nikon A1 AIR MP+, Tokyo, Japan).
# as §3
# [8] = system: Bax, cleaved caspase 3, cleaved caspase 8 in HepG2 cells; test: Western blotting of apoptosis-related proteins in HepG2 cells; type: cell-based, human; conditions: 12.5 or 25 μmol·L^−1
# Protocol: as §3
# A549 cells = test: MTT assay, cell viability of A549 cells; type: cell-based; conditions: Homo sapiens, A549, read-out: A549 IC50
# Protocol: as §1
# [9] = system: Bax, cleaved caspase 3 and 8, IL-6, ARG-1, CD206, COX2 in HepG2 and RAW264.7 cell co-cultivations; test: Western blotting and ELISA in HepG2 and RAW264.7 co-cultivation; type: cell-based
# Protocol: as §4, §3
# [10] = system: HepG2 and RAW264.7 cell co-cultivations; test: Annexin V/PI flow cytometry, HepG2 and RAW264.7 co-cultivation; type: cell-based; conditions: 48 h, compared with the HepG2 cell group
# Protocol: as §5
# [11] = system: iNOS, COX2, NO, IL-1β, IL-6 in LPS-stimulated RAW264.7 cells; test: Inflammatory mediators in LPS-stimulated RAW264.7 cells (Western blot, ELISA, immunofluorescence); type: cell-based, mouse; conditions: LPS (1 μg·mL^−1)-stimulated RAW264.7, 10 and 5 μmol·L^−1, 24 h
# Protocol: as §2, with “M2. […]” for “M2.”
# as §4, with “The iNOS inhibitor (NG-monnomycin-L-arginine, L-NMMA) was selected as the positive control.” left out
# Protein samples were prepared using a RIPA lysis buffer. The concentration of the protein was analyzed using nucleic acid and protein microanalyzer (Molecular Devices, San Jose, CA, USA). […] The protein bands were detected by the ECL and were exposed to the TANON gel imager (Shanghai, China). The results were analyzed by Image J 180 software.
# [12] = IL-4 (20 ng/mL)-stimulated RAW264.7, 10 μmol·L^−1, 0–60 min
# [13] = compared with HepG2 cell group and co-cultivation group
compound,measurement,setting,value
"COc1cccc2c1C(=O)c1c(O)c3c(c(O)c1C2=O)C[C@@](O)(C(=O)CO)C[C@@H]3O[C@H]1C[C@H](N)[C@H](O)[C@H](C)O1 [Adr, adriamycin, reference compound]",IC50,"HepG2 cells [1]; HepG2, cell viability, MTT, n = 3, read-out: HepG2 IC50",4.37 ± 1.21 µM
bisindolylmaleimide [reference compound],level of PKC δ protein,[2],did not
same,"phosphorylation of PKC δ, ERK, and NF-κB",[2],significantly reduced
"[H]/N=C(/NC)NCCC[C@H](N)C(=O)O [l-NMMA, NG-monnomycin-l-arginine, reference compound]",IC50,"[3]; RAW264.7, read-out: RAW264.7 IC50 (inhibition of nitric oxide production)",21.8 ± 3.21 µM
same,CC50,[4],> 50 µM
"CCCCCCCCCCCC(=O)OC12CC(C)C34C=C(C)C(OC(=O)C(C)C(C)C)C3(O)C(O)C(CO)=CC(C4=O)C1C2(C)C (centres unmarked) [Compound A, 13-hydroxyingenol-3-(2,3-dimethylbutanoate)-13-dodecanoate]",IC50,"[3]; LPS-stimulated RAW264.7 cells, n = 3, read-out: RAW264.7 IC50 (inhibition of nitric oxide production)",0.57 ± 0.07 µM
same,IC50,"HepG2 cells [1]; HepG2, read-out: HepG2 IC50",21 ± 4.53 µM
same,time of highest level of phosphorylation of PKC δ,"[5]; treated 0, 10, 20, 40, 60 min",10 to 20 min
same,expression of PKC δ,[5]; versus control group,decreased
same,phosphorylation of PKC δ (p-PKC δ) and ERK (p-ERK),[5]; versus control group,downregulated
same,IC50,MCF-7 cells,27.1 ± 3.34 µM
same,CC50,[4],20.3 ± 3.62 µM
same,apoptosis in HepG2 cells,HepG2 cells [6],significantly induced apoptosis
same,"time of highest point of phosphorylation of PKC δ, ERK, and NF-κB","[2]; LPS (1 μg·mL^−1)-stimulated RAW264.7, compound A 10 μmol·L^−1, 0-60 min",20 to 30 min
same,level of PKC δ protein,[2],decreased
same,"phosphorylation of PKC δ, ERK, and NF-κB",[2],significantly reduced
same,PKC δ and ERK activation,[7]; [12],promote
same,STAT6 phosphorylation,[7]; [12],inhibited
same,activation of STAT3 and STAT6,"[7]; IL-4-stimulated RAW264.7, co-treatment 24 h",inhibited
same,"expression of ARG-1, CD163, TGF-β, and CD206",[7]; IL-4-stimulated RAW264.7 cells,downregulated
same,"expression of Bax, cleaved caspase 3, and cleaved caspase 8",[8],increased
same,IC50,A549 cells,22 ± 5.01 µM
same,"level of Bax, and cleaved caspase 3 and 8","[9]; 10 μmol·L^−1, 48 h",significantly increase
same,COX2 expression,[9]; [13],increased
same,expression of ARG-1 and CD206,[9]; [13],decreased
same,level of IL-6,[9]; [13],decreased
same,apoptosis rates,[10],upregulated
same,COX2 expression,[11],increased
same,"expression of iNOS and production of cytokines (NO, IL-1β, IL-6)",[11],decrease
